# Experiments:
# [1] = system: neuronal cells infected with LV-α-synuclein; assay: Calcein assay of membrane integrity (FLIPR); format: cell-based; details: for Percent reversal of α-Syn mediated disruption of cell integrity (0.01 μM test compound): calcein assay
# Method: (§1) Next, to ascertain the effects on neuronal activity, cells were infected with LV-α-synuclein for 24 h, treated with Example 2 at 0, 0.01, 0.1 and 1 μM for 24 h in serum free media, loaded with Fluo-4 or calcein, and analyzed by FLIPR assay to determine Ca^2+ and calcein levels. […] Finally, to examine the effects Example 2 on neuronal survival, an MTT cell viability assay was performed. […] All cell free and cell based assays were repeated at least 3 times and experiments were performed blinded to sample identity.
# [2] = system: Neuronal cells expressing high levels of α-synuclein; assay: Neurite outgrowth (Tubulin III antibody); format: cell-based; details: 0.1 and 1.0 μM (FIG. 3A)
# neuronal cells = assay: MTT cell viability assay; format: cell-based
# Method: as §1
# Recombinant α-synuclein = Recombinant α-synuclein (Homo sapiens, UniProt P37840); assay: Cell-free α-synuclein aggregation assay (SDS-PAGE, immunoblot); format: biochemical; details: 10 μM α-synuclein, 37° C. 16 h then 56° C. 6 h, immunoblot (FIG. 1)
# Method: Recombinant α-synuclein (10 μM) are incubated at 37° C. for 16 h and then at 56° C. for 6 h with test compound. […] After incubation, the mixture is run on a SDS-PAGE gel, followed by immunoblot testing with α-synuclein antibodies.
# [3] = molecular target: T1, α-synuclein (wild type) expressed by lentivirus in a neuronal cell line (Homo sapiens, UniProt P37840); assay: Cell-based α-synuclein aggregation by immunoblot; details: soluble and insoluble fractions; test compound 0, 0.1, 1 and 10 μM for 24 h
# T1 construct: expressed in transfected cells
# [4] = molecular target: T1, α-synuclein (wild type) expressed by lentivirus in a neuronal cell line; assay: Cell-based α-synuclein accumulation by confocal microscopy; details: test compound 0, 0.1, 1 and 10 μM for 24 h (FIG. 2)
# [5] = system: neuronal cells infected with LV-α-synuclein; assay: Ca2+ levels by FLIPR assay (Fluo-4); format: cell-based; details: 0, 0.01, 0.1 and 1 μM for 24 h in serum free media, Fluo-4 (FIG. 3B)
# Method: as §1
smiles,measurement,setting,value
CCCCc1cc(OCc2c[nH]c3ccccc23)cc(OC(=O)NCCN2CCN(C)CC2)c1 [Example 1],Percent reversal of α-Syn mediated disruption of cell integrity (0.01 μM test compound),[1],26.8%
"CCCCc1cc(NC(=O)NCCN2CCN(C)CC2)cc(O)c1Cc1c[nH]c2ccccc12 [Example 2, 1-(4-((1H-Indol-3-yl)methyl)-3-butyl-5-hydroxyphenyl)-3-(2-(4-methylpiperazin-1-yl)ethyl)urea]",effect on neurite extension and cellular morphology,[2],ameliorated the deleterious effects on neurite extension and improved cellular morphology
same,toxicity in MTT cell viability assay,neuronal cells; at 10 μM (FIG. 3D),mild toxicity
same,toxic effects in MTT cell viability assay,neuronal cells; doses ranging from 0.1-10 μM (FIG. 3D),no toxic effects
same,inhibition of aggregation of α-synuclein into oligomers,Recombinant α-synuclein,capable of inhibiting the aggregation of α-synuclein into oligomers in a concentration-dependent manner
same,reduction in the levels of aggregates in the various fractions (immunoblot),[3],50-60%
same,reduction in the level of aggregates in the neuronal cell bodies and neurites (confocal microscopy),[4],60-65%
same,effect on Ca2+ levels,[5],restored concentrations of Ca^2+ to those in cells not infected with LV-α-synuclein
same,effect on calcein retention in the cytoplasm,"[1]; 0, 0.01, 0.1 and 1 μM for 24 h in serum free media (FIG. 3C)",reversed the effect of α-synuclein on levels of calcein
same,Percent reversal of α-Syn mediated disruption of cell integrity (0.01 μM test compound),[1],34.1%
"CCc1cc(NC(=O)NCCN2CCN(C)CC2)ccc1Cc1c[nH]c2ccccc12 [Example 3, 1-(4-((1H-indol-3-yl)methyl)-3-ethylphenyl)-3-(2-(4-methylpiperazin-1-yl)ethyl)urea]",Percent reversal of α-Syn mediated disruption of cell integrity (0.01 μM test compound),[1],18.9%
"CCc1cc(NC(=O)NCCN)ccc1Cc1c[nH]c2ccccc12 [Example 4, 1-(4-((1H-indol-3-yl)methyl)-3-ethylphenyl)-3-(2-aminoethyl)urea]",Percent reversal of α-Syn mediated disruption of cell integrity (0.01 μM test compound),[1],25.9%
"CCc1cc(NC(=O)NCCN2CCNCC2)ccc1Cc1c[nH]c2ccccc12 [Example 5, 1-(4-((1H-Indol-3-yl)methyl)-3-ethylphenyl)-3-(2-(piperazin-1-yl)ethyl)urea]",Percent reversal of α-Syn mediated disruption of cell integrity (0.01 μM test compound),[1],89.5%
"CCc1cc(NC(=O)NCCc2cnc[nH]2)ccc1Cc1c[nH]c2ccccc12 [Example 6, 1-(2-(1H-imidazol-5-yl)ethyl)-3-(4-((1H-indol-3-yl)methyl)-3-ethylphenyl)urea]",Percent reversal of α-Syn mediated disruption of cell integrity (0.01 μM test compound),[1],37.5%

# Reference: US9527852B2 (Neuropore Therapies, Inc., priority 2012, dated 2016)
